Assays:
[1] = test system: ATCC 29213 (MSSA) and ATCC 43330 (MRSA); experiment: Petri dish (Mueller-Hinton agar) drop test, zones of inhibition vs controls; format: cell-based, Staphylococcus aureus; conditions: for order of anti-bacterial effectiveness: at a given concentration
Procedure: Testing was conducted at a pathology laboratory certified for microbiology testing by a physician and a microbiologist. A double blind, randomized controlled experiment was conducted to evaluate the surfactant compounds against bacteria in Petri dishes.
Bacterial strain: Two well characterized strains of methicillin-sensitive Staphylococcus aureus (MSSA) and methicillin-resistant Staphylococcus aureus (MRSA) were used. Specifically, experiments used ATCC 29213 (MSSA) and ATCC 43330 (MRSA), both beta-lactamase positive strains, which represent greater than 90% of the respective strains in the American population.
Petri dish preparation: A sterile cotton swab (American Scientific Products, McGraw Park, Ill.) was dipped into the cultures and used to swab the entire surface of 150×15 mm Petri dishes containing 75 ml of standard Mueller-Hinton agar. Two Petri dishes were inoculated with ATCC 29213 (MSSA and two Petri dishes with ATCC 43330 (MRSA). One Petri dish of each group (MSSA and MRSA) was set aside as the controls. The other two Petri dishes (MSSA and MRSA) were divided up in quadrants, and each quadrant was labeled B, C, D or E.
Cleanser compositions were prepared as follows: A surfactant solution containing about 10% by volume of sodium dodecylbenzenesulfonate was prepared. An aqueous stock solution containing 0.5% by volume sodium hypochlorite and 0.5% by volume abrasive (calcium carbonate and sodium carbonate) was prepared. The surfactant solution and stock solution were mixed in various ratios to produce four skin cleanser solutions having four different surfactant concentrations of 0.5%, 1%, 2% and 8%, by volume. The amount of sodium hypochlorite, calcium carbonate and sodium carbonate in each of the four skin cleanser solutions was less than 1% concentration by volume.
Cleanser Testing: Four samples of the cleanser with the four different concentrations of the surfactant (0.5%, 1%, 2% and 8%) were placed into four separate, unmarked bottles. Each bottle was randomly labeled (B, C, D, or E), and the microbiologist conducting the study was unaware of any difference between the solutions.
Application: Holding each bottle vertically, the microbiologist added a single drop from each bottle (B, C, D, or E) to the corresponding quadrant of the labeled Petri dish. All four Petri dishes were placed in an incubator overnight at 37 degrees Celsius, and examined 20 hours later. Petri dishes were compared to the corresponding controls, and zones of inhibition were characterized by the largest point of diameter of the circle or oval.
Four cleanser compositions were prepared and tested in the manner described in Example 1, except that each cleanser contained a different anionic surfactant. […]

[2] = test system: Enterococcus; experiment: Infected decubitus ulcer, patient case; format: in vivo, human; conditions: on antibiotics, five days after admission
Description: Action against Gram-positives such as Enterococcus: A person with long history of diabetes was admitted from their hospice care home to an acute care facility hospital secondary to an infected decubitus ulcer (bedsore). This patient's sacral ulcer tested positive from culture swab for Enterococcus, a common Gram-positive bacterium for infecting bedsores. Immediately upon admission, the patient was placed on antibiotics (ciprofloxacin). […] On day five, the treating physician directly cultured the wound again with two cotton swabs. Cotton swab #1, the control, was placed directly in the sealed container based on hospital protocol. Cotton swab #2 was placed into the sealed container, but one single vertical drop of a cleanser solution (prepared as described in Example 1). Both swabs were sent to the lab and a count of colony-forming units (CFUs) ordered.

[3] = test system: mycobacteria marinum; experiment: Finger infection, patient case; format: in vivo, human; conditions: after eleven days of antibiotics
Procedure: Action against Mycobacteria: A person with four month long history of an infection on the posterior aspect of their right ring finger was treated. The infected areas were culture positive for mycobacteria marinum, with symptoms of infection resulting in a 4 cm long patchy zone of erythema, induration, and oozing from the wound. After failing two full courses of oral antibiotics, over the previous four months, the patient was given a third round of antibiotics, this time Clarythromycin, after their finger's condition had worsened.

| Compound | order of anti-bacterial effectiveness [1] | also measured |
| --- | --- | --- |
| C[C@H](CCC(=O)[O-])[C@H]1CC[C@H]2[C@@H]3[C@H](O)C[C@@H]4C[C@H](O)CC[C@]4(C)[C@H]3C[C@H](O)[C@]12C.[Na+] [sodium cholate] | sodium dodecylbenzenesulfonate >N-lauroylsarcosine sodium salt >sodium cholate, sodium deoxycholate |  |
| O=C(O)c1cn(C2CC2)c2cc(N3CCNCC3)c(F)cc2c1=O [ciprofloxacin] |  | course of ulcer [2]: signs of worsening |
| OCl [Sodium hypochlorite] |  | effect on anti-bacterial action of sodium dodecylbenzenesulfonate ([1]; synergy of action): potentiated |
| CCCCCCCCCCCC(=O)N(C)CC(=O)[O-].[Na+] [N-lauroylsarcosine sodium salt] | sodium dodecylbenzenesulfonate >N-lauroylsarcosine sodium salt >sodium cholate, sodium deoxycholate |  |
| CC[C@H]1OC(=O)[C@H](C)[C@@H](O[C@H]2C[C@@](C)(OC)[C@@H](O)[C@H](C)O2)[C@H](C)[C@@H](O[C@@H]2O[C@H](C)C[C@H](N(C)C)[C@H]2O)[C@](C)(OC)C[C@@H](C)C(=O)[C@H](C)[C@@H](O)[C@]1(C)O [Clarythromycin] |  | symptoms of infection [3]: no change in symptoms |
| sodium deoxycholate | sodium dodecylbenzenesulfonate >N-lauroylsarcosine sodium salt >sodium cholate, sodium deoxycholate |  |

Reference: patent US20070232694A1, “SKIN CLEANSER” (priority 2006, published 2007)
